Assay results published in publication PMC7203344, “Sirtuin 1 Inhibiting Thiocyanates (S1th)—A New Class of Isotype Selective Inhibitors of NAD^+ Dependent Lysine Deacetylases” (Frontiers in Oncology, 2020).

Columns and labels:
HDAC1 = HDAC1 (Homo sapiens, UniProt Q13547); test: Homogeneous ZMAL-based fluorescence assay for HDAC1; type: biochemical
Description: (§1) The inhibition of HDAC1 and 6 by the S1th and PR-619 was determined via the ZMAL-assay according to the same general procedure described for sirtuins (2.2.1). 5 μL substrate (10.5 μM final assay concentration) were mixed with 3 μL of inhibitor in DMSO or DMSO and 10 μL of HDAC solution (concentration adjusted to 15–30% conversion) and filled up to 60 μL with assay buffer (50 mM Tris, 137 mM NaCl, 1 mM MgCl2, 2,7 mM KCl, 1 mg/ml BSA, pH = 8.0). The mixture was incubated at 37°C and 140 rpm for 1.5 h. For the stop solution Trichostatin A (3.3 μM) was used instead of nicotinamide. Fluorescence intensity was measured as described above. An enzyme free blank control and an AMC containing 100% control were performed as well and inhibition was calculated in % in relation to a DMSO control.

HDAC6 = target: T1, HDAC6 (Homo sapiens, UniProt Q9UBN7); test: Homogeneous ZMAL-based fluorescence assay for HDAC6; type: biochemical
T1 sequence (Q9UBN7 1-1215): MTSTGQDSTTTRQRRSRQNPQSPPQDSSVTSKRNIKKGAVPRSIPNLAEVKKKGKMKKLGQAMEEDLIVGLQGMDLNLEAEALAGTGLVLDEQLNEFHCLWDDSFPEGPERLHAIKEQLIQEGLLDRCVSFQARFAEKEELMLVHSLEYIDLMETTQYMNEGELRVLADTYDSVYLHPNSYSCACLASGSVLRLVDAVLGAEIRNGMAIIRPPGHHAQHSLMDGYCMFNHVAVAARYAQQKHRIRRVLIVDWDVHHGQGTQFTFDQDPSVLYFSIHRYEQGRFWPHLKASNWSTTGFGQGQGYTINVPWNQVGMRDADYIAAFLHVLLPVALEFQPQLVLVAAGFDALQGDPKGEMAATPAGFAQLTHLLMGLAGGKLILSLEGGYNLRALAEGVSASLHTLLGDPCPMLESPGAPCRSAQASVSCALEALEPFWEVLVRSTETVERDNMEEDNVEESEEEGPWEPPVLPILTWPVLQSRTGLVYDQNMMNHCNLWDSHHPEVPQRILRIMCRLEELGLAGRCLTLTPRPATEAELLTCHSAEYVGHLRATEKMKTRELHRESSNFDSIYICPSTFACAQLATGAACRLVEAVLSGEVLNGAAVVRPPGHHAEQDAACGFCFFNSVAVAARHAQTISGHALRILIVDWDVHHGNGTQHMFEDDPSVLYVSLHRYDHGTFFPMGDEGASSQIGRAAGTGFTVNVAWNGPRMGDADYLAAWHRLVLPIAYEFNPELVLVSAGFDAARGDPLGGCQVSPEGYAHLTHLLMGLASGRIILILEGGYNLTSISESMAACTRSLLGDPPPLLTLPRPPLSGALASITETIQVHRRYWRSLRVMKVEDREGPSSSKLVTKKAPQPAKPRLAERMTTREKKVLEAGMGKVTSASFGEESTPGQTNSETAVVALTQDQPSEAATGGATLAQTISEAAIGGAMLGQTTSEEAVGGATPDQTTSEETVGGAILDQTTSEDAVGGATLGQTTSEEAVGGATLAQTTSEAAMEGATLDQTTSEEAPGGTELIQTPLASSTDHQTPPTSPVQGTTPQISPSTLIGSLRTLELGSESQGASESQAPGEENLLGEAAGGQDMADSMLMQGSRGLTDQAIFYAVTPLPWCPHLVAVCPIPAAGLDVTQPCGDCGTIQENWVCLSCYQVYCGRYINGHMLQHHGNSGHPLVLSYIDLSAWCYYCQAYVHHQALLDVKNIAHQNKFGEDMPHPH
Description: as §1

MCF7 cells [1] = test: Cell proliferation assay with MCF7 cells; type: cell-based, human; details: concentrations as for HeLa
Description: 1.5 × 10^4 cells/well were seeded in 24-well plates and grown in DMEM 10% in presence of DMSO, 20 μM EX-527, 12 μM S1th 13, 20 μM S1th 12, or 30 μM S1th 10. The growth media containing the drugs was replaced every 48 h. Cells were collected and counted at the indicated times starting 24 h after seeding (0, 24, 48, 72, 96, and 120 h). The experiment was performed twice in duplicates.

MCF7 cells [2] = test: Colony forming assay with MCF7 cells; type: cell-based, human; details: concentrations as for HeLa
Description: For colony assays, 50 cells per well were seeded in 6-well plates and grown in the same conditions with the same drug concentrations as for the proliferation assays. In this case, the growth media containing the drugs was replaced every 48 h. After 7–10 days, when isolated colonies were formed, wells were washed with PBS, and cells were fixed with cold methanol for 5 min at RT. Cells were stained with crystal violet for 10 min at RT and washed with H2O. Images were acquired using iBright (Thermo Fisher Scientific, MA, USA). For quantification, cells of each well were resuspended in 10% glacial acetic acid to dissolve crystal violet whose levels were monitored by measuring absorbance at 590 nm. The experiment was performed in duplicates.

[3] = Solubility as found in testing; type: physicochemical; details: compared with earlier hits such as S1th 7

Sequence of HDAC1 (Q13547 whole entry, species assumed): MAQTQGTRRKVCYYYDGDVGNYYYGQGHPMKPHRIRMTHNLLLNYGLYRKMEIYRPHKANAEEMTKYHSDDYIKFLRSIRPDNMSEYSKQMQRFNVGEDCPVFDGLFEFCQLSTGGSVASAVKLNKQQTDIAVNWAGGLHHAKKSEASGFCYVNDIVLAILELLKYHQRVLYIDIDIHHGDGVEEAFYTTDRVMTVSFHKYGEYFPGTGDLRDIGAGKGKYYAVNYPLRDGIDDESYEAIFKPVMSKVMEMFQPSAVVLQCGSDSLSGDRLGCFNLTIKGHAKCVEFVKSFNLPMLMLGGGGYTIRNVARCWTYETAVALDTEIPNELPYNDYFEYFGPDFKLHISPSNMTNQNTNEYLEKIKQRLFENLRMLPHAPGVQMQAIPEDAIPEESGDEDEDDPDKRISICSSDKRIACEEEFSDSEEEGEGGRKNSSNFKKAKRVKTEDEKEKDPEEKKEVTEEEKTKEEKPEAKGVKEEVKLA

Row | Compound | inhibition at 100 µM (HDAC1) [%] | residual activity HDAC1 (HDAC1) | residual activity HDAC6 (HDAC6) | inhibition at 100 µM (HDAC6) [%] | % inhibition @ 100 μM HDAC6 (HDAC6) [%] | cell proliferation of MCF7 cells (MCF7 cells [1]) | colony forming capabilities of MCF7 cells (MCF7 cells [2]) | solubility (in words) [3]
1 | N#CSc1cc(SC#N)c(N)nc1N [PR-619, reference compound] | 54 | ~ 50% | ~ 50% | 49 |  |  |  | 
2 | N#CSc1cccc(NC(=O)[C@H]2CC=CC[C@H]2C(=O)O)c1 [S1th 10] | < 10 |  |  | 19 | 29 | most effective | slightly decreased | 
3 | CCCCNC(=O)Nc1cccc(SC#N)c1 [S1th 11] | < 10 |  |  | < 10 |  |  |  | better soluble
4 | COc1ccc(SC#N)cc1OCC(=O)N(CCC#N)CCC#N [S1th 12] | < 10 |  |  | 36 |  | only have a mild effect | barely affected | better soluble
5 | N#CSc1cccc(NS(=O)(=O)c2ccc3c(c2)OCCO3)c1 [S1th 13] | < 10 |  |  | 29 | 19 | most effective | significantly decreased | better soluble
